Activity calls are given as the source filed them.
Experiments:
[1] = OVCAR4 cell viability loss – plate reader, dry powder, SA11, cytotoxicity control for PAX8 inhibitor project, dose response (AID 743150); format: functional, cell-based; conditions: OVCAR-4
[2] = toxicity toward immortalized ovarian surface epithelium – cell-based, plate reader, dry powder samples, cytotoxicity control for PAX8 inhibitor project, dose response (AID 743045); format: functional
[3] = COV434 cell viability loss – plate reader, dry powder, SA7, cytotoxicity control for PAX8 inhibitor project, dose response (AID 743145); format: functional, cell-based
[4] = PAX5 cellular inhibition readout – cell-based, plate reader, dry powder samples, selectivity assay for PAX8 inhibitor project, dose response (AID 743047); format: functional;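 note: HEK293 cells carrying a Pax5 driven CD19 promoter luciferase reporter; potency of inhibitors that lower reporter luminescence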
[5] = COV362 cell viability loss – plate reader, dry powder, SA12, cytotoxicity control for PAX8 inhibitor project, dose response (AID 743144); format: functional, cell-based
[6] = inhibitors acting on PAX2 in cells – cell-based, plate reader, dry powder samples, selectivity assay for PAX8 inhibitor project, dose response (AID 743048); format: functional;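 note: HEK293 cells carrying a WT1 promoter luciferase reporter driven by expressed Pax2; potency is for inhibition of Pax2 driven reporter signal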
[7] = OV-90 cell viability loss – plate reader, dry powder, SA8, PAX8 inhibitor project, dose response (AID 743149); format: functional, cell-based
[8] = PAX8-dependent cell viability loss – plate reader, dry powder, dose response (AID 743049); format: functional, cell-based
Paired box protein Pax-8 = Paired box protein Pax-8 (Homo sapiens, UniProt Q06710); assay: PAX8 transcriptional activity inhibition in RMG-I – RMG-I cells, luciferase, cherry-pick, dose response (AID 687027); format: functional, cell-based;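 note: luciferase reporter driven by Pax8 target thyroperoxidase promoter measured by SteadyGlo luminescence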
[9] = BioA aminotransferase inhibition, coupled fluorescent readout – biochemical, coupled fluorescence displacement, 20-point, dry powder, dose response (AID 743357); format: functional
[10] = molecular target: T1, Endoribonuclease toxin MazF (Escherichia coli K-12, UniProt P0AE70); assay: substrate-only fluorescence increase artefacts – biochemical, single-stranded RNase substrate, counter-screen for MazEF activator project, dose response (AID 588502); format: functional
T1 sequence (P0AE70 whole entry): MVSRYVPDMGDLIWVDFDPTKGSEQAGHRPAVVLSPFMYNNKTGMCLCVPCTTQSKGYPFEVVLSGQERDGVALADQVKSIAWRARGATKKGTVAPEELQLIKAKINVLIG

[11] = molecular target: T1, Endoribonuclease toxin MazF; assay: activation of MazEF endoribonuclease cleavage – biochemical, fluorescence, single-stranded RNA substrate, uHTS hits, dose response (AID 588481); format: functional
Protein Tat = Protein Tat (Human immunodeficiency virus type 1 group M subtype B (isolate HXB2)(HIV-1), UniProt P04608); format: functional;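 note: tat binding to TAR RNA read out by fluorescence polarization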
[12] = Counterscreen for inhibitors of Trypanosoma brucei methionyl tRNA synthetase (MetRS): Luminescence-based cell-based high throughput dose response assay to identify compounds that are cytotoxic to Jurkat human T lymphocyte cells.; format: functional
[13] = molecular target: T2, Methionyl-tRNA synthetase, putative (Trypanosoma brucei brucei, UniProt Q38C91); format: functional, Trypanosoma brucei brucei strain 927/4 GUTat10.1
T2 sequence (Q38C91 whole entry): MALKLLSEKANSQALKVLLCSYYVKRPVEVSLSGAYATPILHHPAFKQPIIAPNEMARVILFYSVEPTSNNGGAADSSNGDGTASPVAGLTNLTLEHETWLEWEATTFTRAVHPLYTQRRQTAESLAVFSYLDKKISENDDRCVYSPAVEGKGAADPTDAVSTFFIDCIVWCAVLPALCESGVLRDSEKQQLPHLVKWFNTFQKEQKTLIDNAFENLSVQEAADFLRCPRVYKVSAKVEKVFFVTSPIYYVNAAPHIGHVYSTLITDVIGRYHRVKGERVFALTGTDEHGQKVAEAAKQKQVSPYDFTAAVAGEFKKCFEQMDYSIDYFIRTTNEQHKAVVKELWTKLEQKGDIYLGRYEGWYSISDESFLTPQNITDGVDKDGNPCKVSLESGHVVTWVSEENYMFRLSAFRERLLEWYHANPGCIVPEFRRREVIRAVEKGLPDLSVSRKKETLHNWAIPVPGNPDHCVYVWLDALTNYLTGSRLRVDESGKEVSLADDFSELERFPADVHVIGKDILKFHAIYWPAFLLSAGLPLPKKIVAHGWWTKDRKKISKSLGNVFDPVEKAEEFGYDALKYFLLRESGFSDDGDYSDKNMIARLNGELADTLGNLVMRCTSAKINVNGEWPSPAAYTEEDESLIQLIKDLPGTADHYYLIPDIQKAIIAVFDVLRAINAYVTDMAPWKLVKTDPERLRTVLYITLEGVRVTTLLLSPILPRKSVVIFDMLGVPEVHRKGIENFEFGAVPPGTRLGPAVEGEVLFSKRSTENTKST

[14] = molecular target: T2, Methionyl-tRNA synthetase, putative; format: functional, Trypanosoma brucei brucei strain 927/4 GUTat10.1; remark: listed apart in the source
[15] = Late stage counterscreen for inhibitors of Trypanosoma brucei methionyl tRNA synthetase (MetRS): Luminescence-based cell-based high throughput dose response assay to identify compounds that are cytotoxic to Jurkat human T lymphocyte cells.; format: functional
HEK293 [16] = assay: cells; format: functional, cell-based; conditions: Homo sapiens
[17] = molecular target: Heat shock protein HSP 90-alpha (Homo sapiens, UniProt P07900); assay: Luminescence-based dose response biochemical high throughput screening assay for inhibitors of the Heat Shock Protein 90 (HSP90). [Related pubchem assays: 1831 (Summary AID.), 1846 (Confirmation screen.), 1789 (Primary screen.)]
Galanin receptor type 2 = Galanin receptor type 2 (Homo sapiens, UniProt O43603); assay: Dose Response cell-based high-throughput screening assay to identify antagonists of galanin receptor 2 (GALR2). [Related pubchem assays: 828, 866 ]; format: functional
HEK293 [18] = assay: NOD2 signaling inhibitors in MDP-stimulated cells, cell-based, uHTS, luminescence (AID 2001); format: functional; conditions: Homo sapiens
HEK293 [19] = assay: cells; format: functional, cell-based; conditions: Homo sapiens; remark: listed apart in the source
[20] = molecular target: Nucleotide-binding oligomerization domain-containing protein 2 (Homo sapiens, UniProt Q9HC29); assay: inhibition of NOD2-driven NF-kB reporter – cell-based, luminescence, uHTS, HEK293 (AID 1566); format: functional
HEK293 [21] = assay: inhibition of NOD1-driven NF-kB reporter – cell-based, luminescence, uHTS, primary screen (AID 1578); format: functional; conditions: Homo sapiens
[22] = molecular target: COUP transcription factor 2 (Homo sapiens, UniProt P24468); assay: Luminescence-based cell-based high throughput dose response assay to identify inhibitors of COUP-TFII (NR2F2).; format: functional;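 note: HEK293 cells transiently cotransfected with COUP-TFII expression vector and reporter; luciferase reporter luminescence driven by COUP-TFII from the pX2-168 reporter plasmid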
INS1 = assay: INS-1E survival protection against cytokine death – cell-based, luminescence, retest, dose response (AID 449756); format: functional; conditions: Rattus norvegicus;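 note: cell death triggered by IL-1 beta plus TNF-alpha plus IFN-gamma mixture; protective hits raise ATP signal compared with cytokine alone wells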
HEK293 [23] = assay: cells; format: functional, cell-based; conditions: Homo sapiens; remark: listed apart in the source
[24] = molecular target: T3, Tyrosine-protein phosphatase non-receptor type 7 (Homo sapiens, UniProt P35236); assay: HePTP tyrosine phosphatase activity blockers – biochemical, absorbance, leukemia target, primary screen (AID 521); format: functional
T3 sequence (P35236 whole entry): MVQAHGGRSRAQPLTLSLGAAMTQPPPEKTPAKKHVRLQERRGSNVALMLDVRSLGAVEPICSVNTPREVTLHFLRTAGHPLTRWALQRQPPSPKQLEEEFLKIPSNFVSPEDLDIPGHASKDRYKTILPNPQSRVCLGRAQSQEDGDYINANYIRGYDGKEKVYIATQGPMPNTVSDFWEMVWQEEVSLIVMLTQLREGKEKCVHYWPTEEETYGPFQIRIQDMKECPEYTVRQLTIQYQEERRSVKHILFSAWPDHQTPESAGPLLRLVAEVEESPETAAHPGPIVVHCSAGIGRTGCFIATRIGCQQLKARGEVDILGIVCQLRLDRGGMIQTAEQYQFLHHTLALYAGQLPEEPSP

Protein skinhead-1 = molecular target: T4, Protein skinhead-1 (Caenorhabditis elegans, UniProt P34707); format: functional
T4 sequence (P34707 whole entry): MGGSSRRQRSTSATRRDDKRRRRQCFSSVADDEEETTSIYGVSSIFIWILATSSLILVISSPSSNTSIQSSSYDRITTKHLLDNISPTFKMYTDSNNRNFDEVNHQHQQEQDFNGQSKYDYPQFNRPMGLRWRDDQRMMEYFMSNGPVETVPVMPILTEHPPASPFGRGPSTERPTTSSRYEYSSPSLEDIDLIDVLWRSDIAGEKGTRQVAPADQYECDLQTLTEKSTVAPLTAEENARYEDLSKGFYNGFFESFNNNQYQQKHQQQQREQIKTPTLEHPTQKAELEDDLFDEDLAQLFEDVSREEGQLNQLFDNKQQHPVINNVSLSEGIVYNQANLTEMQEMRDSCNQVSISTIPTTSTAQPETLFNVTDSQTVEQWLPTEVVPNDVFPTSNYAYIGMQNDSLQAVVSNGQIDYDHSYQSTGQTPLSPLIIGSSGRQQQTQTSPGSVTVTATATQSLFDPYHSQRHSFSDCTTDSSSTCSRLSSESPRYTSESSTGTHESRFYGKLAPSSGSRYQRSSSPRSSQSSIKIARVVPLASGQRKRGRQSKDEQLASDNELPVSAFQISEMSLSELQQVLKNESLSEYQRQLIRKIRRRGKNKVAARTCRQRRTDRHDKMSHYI

[25] = viability of PTEN-deleted HCT116 cells – cell-based, HCT116 PTEN knockout, dose response (AID 1047); format: functional;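 note: HCT116 colon tumor cells with PTEN knocked out; cells exposed to compound for 60 hours before readout; potency for loss of cell viability measured by luminescence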
[26] = viability of HCT116 lacking mutant beta-catenin – cell-based, human colon tumor, dose response (AID 1045); format: functional;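 note: HCT116 colon tumor cells with beta catenin knocked out; cells exposed to compound for 60 hours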
[27] = reduced cellular PGC1a acetyl-lysine signal – cell-based, cherry-picked samples, dose response (AID 720514); format: functional;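 note: potency may reflect raised or lowered acetylation signal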
[28] = molecular target: Mitogen-activated protein kinase 10 (Homo sapiens, UniProt P53779); assay: Dose response biochemical screening assay for inhibitors of c-Jun N-Terminal Kinase 3 (JNK3). [Related pubchem assays: 746 ]
Sequence of Mitogen-activated protein kinase 10 (P53779 whole entry): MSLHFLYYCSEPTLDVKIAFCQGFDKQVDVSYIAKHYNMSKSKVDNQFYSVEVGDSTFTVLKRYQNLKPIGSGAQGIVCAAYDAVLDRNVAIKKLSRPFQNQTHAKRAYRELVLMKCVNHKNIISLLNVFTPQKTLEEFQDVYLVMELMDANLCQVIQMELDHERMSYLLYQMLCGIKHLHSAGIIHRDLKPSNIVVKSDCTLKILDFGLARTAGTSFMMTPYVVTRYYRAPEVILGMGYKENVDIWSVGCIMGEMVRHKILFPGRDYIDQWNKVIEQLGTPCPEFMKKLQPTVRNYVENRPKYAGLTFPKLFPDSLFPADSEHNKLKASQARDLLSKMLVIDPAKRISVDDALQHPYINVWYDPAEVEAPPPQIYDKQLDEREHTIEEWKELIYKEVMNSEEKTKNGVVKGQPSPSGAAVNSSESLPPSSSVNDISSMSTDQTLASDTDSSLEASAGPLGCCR

Sequence of COUP transcription factor 2 (P24468 whole entry): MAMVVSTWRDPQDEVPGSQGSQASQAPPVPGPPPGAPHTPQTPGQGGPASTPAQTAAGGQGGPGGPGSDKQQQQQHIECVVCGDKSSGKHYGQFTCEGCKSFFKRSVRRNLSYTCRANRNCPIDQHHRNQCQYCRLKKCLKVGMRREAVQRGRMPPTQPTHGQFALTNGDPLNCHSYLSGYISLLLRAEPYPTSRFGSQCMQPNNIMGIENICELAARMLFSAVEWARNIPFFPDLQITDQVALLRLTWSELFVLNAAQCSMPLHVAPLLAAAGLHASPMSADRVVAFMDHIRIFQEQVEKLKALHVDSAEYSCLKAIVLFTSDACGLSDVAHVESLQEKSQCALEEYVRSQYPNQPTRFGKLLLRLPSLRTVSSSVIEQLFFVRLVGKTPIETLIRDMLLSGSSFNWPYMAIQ
Sequence of Nucleotide-binding oligomerization domain-containing protein 2 (Q9HC29 whole entry, the tested form may be a part): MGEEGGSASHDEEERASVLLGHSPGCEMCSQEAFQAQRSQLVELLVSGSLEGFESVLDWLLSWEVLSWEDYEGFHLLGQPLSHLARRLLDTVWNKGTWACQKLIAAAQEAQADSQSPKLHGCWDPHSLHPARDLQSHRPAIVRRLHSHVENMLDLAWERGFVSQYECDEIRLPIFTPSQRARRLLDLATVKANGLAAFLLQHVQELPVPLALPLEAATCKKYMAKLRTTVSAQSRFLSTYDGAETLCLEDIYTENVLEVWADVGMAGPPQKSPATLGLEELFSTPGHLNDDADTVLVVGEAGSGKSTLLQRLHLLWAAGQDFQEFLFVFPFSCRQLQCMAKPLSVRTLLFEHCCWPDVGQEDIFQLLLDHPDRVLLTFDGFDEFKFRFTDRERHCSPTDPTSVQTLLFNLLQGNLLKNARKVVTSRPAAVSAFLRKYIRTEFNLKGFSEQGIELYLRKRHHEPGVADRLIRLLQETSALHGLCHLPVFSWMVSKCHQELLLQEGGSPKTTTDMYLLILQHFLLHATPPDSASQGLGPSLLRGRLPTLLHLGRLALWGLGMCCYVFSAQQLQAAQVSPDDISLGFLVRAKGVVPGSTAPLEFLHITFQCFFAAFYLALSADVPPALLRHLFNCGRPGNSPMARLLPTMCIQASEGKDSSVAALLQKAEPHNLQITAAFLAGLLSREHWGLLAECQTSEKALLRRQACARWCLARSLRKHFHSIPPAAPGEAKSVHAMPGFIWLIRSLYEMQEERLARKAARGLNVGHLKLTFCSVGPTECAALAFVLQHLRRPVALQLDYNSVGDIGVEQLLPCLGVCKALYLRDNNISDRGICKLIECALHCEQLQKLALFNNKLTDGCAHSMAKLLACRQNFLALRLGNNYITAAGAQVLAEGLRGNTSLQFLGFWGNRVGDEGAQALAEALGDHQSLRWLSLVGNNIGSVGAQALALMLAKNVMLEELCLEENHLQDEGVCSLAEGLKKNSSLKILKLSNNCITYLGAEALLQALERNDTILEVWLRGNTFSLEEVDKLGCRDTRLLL
Sequence of Protein Tat (P04608 whole entry): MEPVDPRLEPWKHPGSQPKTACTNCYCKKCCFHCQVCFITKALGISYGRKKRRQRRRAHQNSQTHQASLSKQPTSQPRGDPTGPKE
Sequence of Paired box protein Pax-8 (Q06710 whole entry): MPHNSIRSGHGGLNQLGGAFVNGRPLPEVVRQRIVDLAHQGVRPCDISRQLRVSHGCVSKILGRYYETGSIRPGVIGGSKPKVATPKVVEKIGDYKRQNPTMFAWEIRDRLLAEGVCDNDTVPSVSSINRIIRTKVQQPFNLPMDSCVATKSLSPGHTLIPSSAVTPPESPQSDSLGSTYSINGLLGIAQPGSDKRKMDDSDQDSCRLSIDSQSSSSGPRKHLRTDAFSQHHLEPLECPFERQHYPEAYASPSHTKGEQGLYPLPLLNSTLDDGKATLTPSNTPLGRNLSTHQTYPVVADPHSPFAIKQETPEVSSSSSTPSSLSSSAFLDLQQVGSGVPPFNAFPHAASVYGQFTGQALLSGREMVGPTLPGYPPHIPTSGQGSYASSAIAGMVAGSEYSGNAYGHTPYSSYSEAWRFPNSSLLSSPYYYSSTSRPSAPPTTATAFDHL
Sequence of Galanin receptor type 2 (O43603 whole entry): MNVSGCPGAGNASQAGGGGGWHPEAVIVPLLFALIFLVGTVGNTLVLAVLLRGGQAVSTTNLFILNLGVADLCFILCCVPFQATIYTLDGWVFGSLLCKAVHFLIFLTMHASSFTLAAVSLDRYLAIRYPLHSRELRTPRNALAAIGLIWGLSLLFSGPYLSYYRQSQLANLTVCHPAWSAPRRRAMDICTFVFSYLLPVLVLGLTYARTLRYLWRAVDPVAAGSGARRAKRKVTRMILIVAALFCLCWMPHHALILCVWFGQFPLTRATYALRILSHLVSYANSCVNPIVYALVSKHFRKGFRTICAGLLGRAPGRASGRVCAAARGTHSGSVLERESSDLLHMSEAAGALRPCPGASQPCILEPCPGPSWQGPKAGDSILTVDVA

COc1ccc(CCN2C(=O)CSC2=S)cc1OC
AC50 [1]: 51.2 µM (active)
AC50 [2]: 16.8 µM (active)
AC50 [3]: 6.49 µM (active)
AC50 [4]: > 100 µM (inactive)
AC50 [5]: 16.6 µM (active)
AC50 [6]: 68.3 µM (active)
AC50 [7]: 8.61 µM (active)
AC50 [8]: 16 µM (active)
AC50 (Paired box protein Pax-8): 7.01 µM (active)

N#Cc1ccc(N2CCN(C(=O)c3ccc4c(c3)OCO4)CC2)cc1
AC50 [9]: 16.8 µM (active)

CCN(CC)c1ccc(/C=N/c2ccc(N(C)C)cc2)c(O)c1
EC50 [10]: > 99 µM (inactive)
EC50 [11]: > 99 µM (inactive)
IC50 (Protein Tat): > 100 µM (inconclusive)

Clc1ccc(OCCSCc2nc3ccccc3[nH]2)cc1
IC50 [12]: 83.3 µM (inactive)
IC50 [13]: 8.17 µM (active)
IC50 [14]: 5.85 µM (active)
IC50 [15]: > 83.3 µM (inactive)

CC(=O)Nc1ccccc1OCC(=O)c1cc(C)n(Cc2cccs2)c1C
IC50 (HEK293 [16]): 13.4 µM (active)
IC50 [17]: 0.106 µM (active)
IC50 (Galanin receptor type 2): > 42 µM (not active)
IC50 (HEK293 [18]): 2.05 µM (inactive)
IC50 (HEK293 [19]): > 20 µM (inactive)
EC50 [20]: < 0.31 µM (inactive)
EC50 (HEK293 [21]): 0.566 µM (active)
IC50 [22]: 0.807 µM (active)
AC50 (INS1): 0.775 µM (active)
IC50 (HEK293 [23]): < 0.312 µM (active)

CN(Cc1ccccc1)c1nc2c(c(=O)[nH]c(=O)n2C)n1Cc1ccccc1
IC50 [24]: > 100 µM (not active)

CCOc1cc(CNC2CCCC2)cc(Cl)c1OCc1ccc(F)cc1
IC50 (Protein skinhead-1): < 3.13 µM (active)
EC50 [25]: 16.1 µM (active)
EC50 [26]: 12.5 µM (active)
AC50 [27]: 9.73 µM (active)

Cc1cccc(/N=C/c2c(O)[nH]c3ccccc23)n1
IC50 [28]: 41.7 µM (not active)

Source: ChEMBL document CHEMBL1201862, “PubChem BioAssay data set” (2004)
